Test results as given in US11911442B2, “Use of soluble pro(renin) receptor to treat metabolic disorders and related conditions” (priority 2017, dated 2024).

How the values were obtained:
mouse model of NDI = assay: Mouse model of NDI induced with V2R antagonist OPC; format: in vivo
Excerpt: Mice were placed in metabolic cages for assessment of daily water intake and urine output. (A) daily water intake (n=4 mice per group). (B) Daily urine output (n=4 mice per group). (C) Urine osmolality (n=4 mice per group). (D) Urinary sPRR excretion (n=4 mice per group). Data are shown as mean±SE. In A-C, #P<0.05 vs. OPC alone; in D*P<0.05 vs. control. (E) Schematic illustration of the mechanism of action of sPRR. In the lumen of the distal nephron, sPRR binds FZD8 in a receptor complex on the apical membrane of principal cells, resulting in the activation of β-catenin, which promotes cAMP accumulation, ultimately leading to increased AQP2 transcription and enhanced urine concentration.
In support of this notion, it has been shown that exposure of the CD cells to AVP stimulates the release of sPRR. FIG. 8E provides a schematic illustration of the mechanism of action of sPRR in the CD principal cells.
Urinary or medium sPRR was determined using a commercially sPRR enzyme immunoassay (EIA) kit (catalog no. JP27782; Immuno-Biological Laboratories) according to the manufacturer's instructions.

Sprague-Dawley (SD) rats = assay: Water balance and renal AQP2 in SD rats, basal and water deprivation; format: in vivo, rat
Method: FIGS. 6A-6H show a role of the Wnt/β-catenin pathway in urine-concentrating capability in rats. SD Rats were administered vehicle, OMP, or XAV and were placed in metabolic cages for assessment of the state of water metabolism at basal condition (A-C) or after 24-h WD (D-H) (n=5 rats per group). At basal the condition, water intake (A), urine volume (B), and urine osmolality (C) were determined. (D-F) During 24-h WD, urine volume (D), urine osmolality (E), and body-weight (BW) changes (F) were monitored. (G and H) At the end of the experiment plasma osmolality (G) and Hct (H) were measured. *P<0.05 vs. control; #P<0.05 vs. WD alone.
FIGS. 7A-7F show an in vivo role of the Wnt/β-catenin pathway in the regulation of renal AQP2 expression during antidiuresis in rats. (A and B) To assess renal β-catenin activation by WD, the nuclear fraction of renal cortex (n=4 rats per group) (A) and the inner medulla (n=4 rats per group) (B) from control and dehydrated rats were subjected to immunoblotting analysis of β-catenin. (C-F) Immunoblotting analysis of AQP2 expression was performed on the renal cortex and the inner medulla of rats treated with vehicle or WD with (C) or without (D) OMP or with (E) or without (F) XAV (n=5 rats per group). Data are shown as mean±SE; *P<0.05 vs. control; #P<0.05 vs. WD. CO, cortex; IM, inner medulla.
To probe the in vivo role of β-catenin signaling in fluid homeostasis, OMP and XAV were administered to Sprague-Dawley (SD) rats under basal conditions and during […] water deprivation (WD) and evaluated their impact on water balance.
Renal tissues were lysed and subsequently sonicated. Protein concentrations were determined using Coomassie reagent. Forty micrograms of protein from each sample were denatured in boiling water, separated by SDS/PAGE, and transferred onto nitrocellulose membranes. Blots were blocked 1 h with 5% nonfat dry milk in Tris-buffered saline (TBS), followed by overnight incubation with primary antibody. After washing with TBS, blots were incubated with goat anti-rabbit/mouse HRP-conjugated secondary antibody and visualized using ECL. The blots were quantitated by using Image-Pro Plus (Media Cybernetics). The primary antibodies were goat anti-AQP2 antibody, rabbit anti-PRR-N antibody, and rabbit anti-FZD8 antibody (all from Santa Cruz), rabbit anti-V2R antibody (Abcam), and goat anti-β-catenin antibody (Novus).

Wnt/β-catenin pathway = assay: Acute and chronic responses to AVP (cAMP, AQP2) in primary rat IMCD cells; format: cell-based; conditions: XAV pretreatment 1 h
Method: FIGS. 5A-5F show a distinct role of the Wnt/β-catenin pathway in the acute and chronic responses to AVP in primary rat IMCD cells. The IMCD cells were pretreated for 1 h with XAV and were treated for 30 min or 24 h with 10 nM AVP. (A) At 30 min of AVP treatment, the medium was assayed for cAMP using ELISA (n=6 per group). (B and C) Membrane fraction (n=6 per group) (B) and cytosolic fraction (n=6 per group) (C) were subjected to immunoblotting analysis of AQP2. (D-F) At 24 h, medium cAMP was determined (n=6 per group) (D), whole-cell lysates were subjected to immunoblotting analysis of AQP2 (n=6 per group) (E), and total RNA was subjected to quantitative RT-PCR analysis of AQP2 mRNA (n=4 per group) (F). Data are shown as mean±SE; *P<0.05 vs. control; #P<0.05 vs. AVP alone.
For sPRR signaling studies, primary IMCD cells were prepared from 4-wk-old SD rats as previously described (35). The cells were grown in Transwell plates (catalog no. 29442-074; VWR International) with DMEM/F-12 medium containing 10% (vol/vol) FBS, 0.5 μM 8-Br-cAMP, 130 mM NaCl, and 80 mM urea. […] At the end of the experiments, the medium was collected for biochemical assays.
The membrane and cytosolic fractions of proteins were extracted using a kit according to the manufacturer's instructions (catalog no. BSP002; Bio Basic Inc.).

AQP2 = AQP2 expression in primary rat IMCD cells (quantitative RT-PCR, immunoblotting); format: cell-based; conditions: inhibitor 10 μM pretreatment 1 h, then 10 nM sPRR-His 24 h

SMILES | water intake, urine output, urine osmolality (mouse model of NDI; C57/BL6 mice, OPC via gavage 30 mg·kg^−1·d^−1 for 3 d) | urinary sPRR excretion (mouse model of NDI; OPC-treated mice) | WD-induced increase of AQP2 protein abundance in renal cortex and inner medulla (Sprague-Dawley (SD) rats; WD, immunoblotting) | water balance (urine volume, water intake, urine osmolality) (Sprague-Dawley (SD) rats; basal conditions, administration over 48 h) | plasma osmolality and hematocrit (Hct) (Sprague-Dawley (SD) rats; during 48-h WD) | urine osmolality (Sprague-Dawley (SD) rats; during 48-h WD) | urine volume (Sprague-Dawley (SD) rats; during 48-h WD) | weight loss (Sprague-Dawley (SD) rats; during 48-h WD) | rapid rise of cAMP and redistribution of AQP2 from the cytosol to the membrane in response to AVP (Wnt/β-catenin pathway; 30-min exposure to 10 nM AVP) | AVP-induced increases in cAMP level, total protein abundance and mRNA expression of AQP2 (Wnt/β-catenin pathway; 24 h 10 nM AVP) | sPRR-His-induced AQP2 protein expression, effect of inhibitor (AQP2)
Cc1ccccc1C(=O)Nc1ccc(C(=O)N2CCCC(N(C)C)c3ccccc32)cc1 (centres unmarked) [OPC] | polydipsia, polyuria, and hypoosmotic urine | suppressed significantly |  |  |  |  |  |  |  |  | 
Oc1nc(-c2ccc(C(F)(F)F)cc2)nc2c1CSCC2 [XAV939] |  |  | attenuated significantly | polyuria, polydipsia, and hypoosmotic urine | greater increases | decreased | increased | exaggerated | unaffected | effectively attenuated | blunted
